Data from patent publication US20030216398A1, “Soluble beta amyloid precursor protein secretion promoters” (priority 2002, published 2003).

Assays:
[1] = system: sAPP Secretion in Rat-Derived Pheochromocytoma PC12h Cells; assay: sAPP secretion promoting activity in PC12h cells (Western blotting of culture supernatant); format: cell-based; conditions: 3 hours after addition
Experimental: Substrain PC12 h cells of rat-derived pheochromocytoma PC12 h cells (Brain Res., 222 (191), p. 225-233) were handed out by Professor Hiroshi Hatanaka of Osaka University. Dulbecco's modified Eagle's medium (DMEM) was purchased from Nissui Seiyaku K.K., HEPES (N-2-hydroxyethylpiperazine-N′-2-ethanesulfonic acid) buffer (pH 7.4), horse serum (HS) and a penicillin (5000 U/ml)/streptomycin (5 mg/ml) mixture from Gibco, and fetal calf serum (FCS) from BioWhittaker, Inc. A flask for incubation and a 6-well multi-well plate coated with collagen manufactured by Falcon Co., Ltd. and Iwaki Glass Co., Ltd., respectively, were used. Anti-βAPP 22C11 antibody was purchased from Roche Diagnostics, Inc. Other reagents used were special grade chemicals commercially available.
PC12h cells were grown in DMEM medium supplemented with 10% FCS/5% HS/penicillin-streptomycin, the cells were taken out by pipetting. The cells were inoculated on the collagen-coated 6-well plate to become 50-70% confluent, which was allowed to stand for a day. On the following day, the well was rinsed twice with 1 ml of […] HEPES/DMEM. […]
The culture supernatant was concentrated by ultrafiltration using Microcon 10 (Amicon, Inc.). […] ECL Plus (Amersham, Inc.) was used for detection, followed by digitalization in Fluor-S Max (Bio-Rad Laboratories) and quantification using NIH-image.

PC12h cells = assay: Prevention of glutamate-induced cell death (apoptosis) in PC12h cells, surviving cells by LDH activity; format: cell-based, rat; conditions: 1 mM glutamate, 72 hours, mean of 3 wells
Experimental: Substrain PC12h cells of rat-derived pheochromocytoma PC12 h cells were handed out by Professor Hiroshi Hatanaka of Osaka University. Dulbecco's modified Eagle's medium (DMEM) was purchased from Nissui Seiyaku K.K., HEPES (N-2-hydroxyethylpiperazine-N′-2-ethanesulfonic acid) buffer (pH 7.4), horse serum (HS) and a penicillin (5000 U/ml)/streptomycin (5 mg/ml) mixture from Gibco, fetal calf serum (FCS) from BioWhittaker, Inc., transferrin, insulin and progesterone from Sigma, Inc. A flask for incubation and a collagen-coated 96-well multi-well plate used were manufactured by Falcon Co., Ltd. and Iwaki Glass Co., Ltd., respectively. LDH cytotoxic test Wako was purchased from Wako Pure Chemical Industries, Ltd. Other reagents used were special grade chemicals commercially available.
PC12h cells were inoculated on the 96-well plate in 2×10^4 cells/cm^2. On the following day, the medium was exchanged with HEPES/DME medium containing […] and 20 nM progesterone. The cells survived 72 hours after were counted. The cell number was determined by solubilizing the cells survived in PBS containing Tween 20 after removal of the medium and assaying in terms of the LDH activity.
In PC12h cells, glutamate in the medium hampers uptake of cystine, or a material to make glutathione, into cells. Thus, when 1 mM or more glutamates are added to a medium and incubation is continued for 3 days or longer, it is known that PC12h cells become extinct due to apoptosis accompanied by a reduced level of glutathione in the cells.

SMILES	sAPP secretion level (relative value to the control group, when the control group is made 100) ([1]; 3 μM of each compound, mean of 3 wells, anti-βAPP 22C11 Western blotting quantified with NIH Image)	sAPP level increase as compared to the control group ([1]; 3 μM, mean relative value in 3 wells (FIG. 2))	Surviving Rate (%) (PC12h cells; 0.1 μM compound)	Surviving Rate (%) (PC12h cells; 0.3 μM compound)	Surviving Rate (%) (PC12h cells; 1.0 μM compound)	Surviving Rate (%) (PC12h cells; 3.0 μM compound)	Surviving Rate (%) (PC12h cells; 10.0 μM compound)	melting point
COc1ccc(C(=O)N2c3ccccc3[C@H](Nc3ccccc3)C[C@@H]2C)cc1OC (relative stereo) [Compound 1-3, cis-1-(3,4-dimethoxybenzoyl)-2-methyl-N-phenyl-1,2,3,4-tetrahydro-4-quinolinamine]	325.14	3.3 times	4.89%	7.44%	49.17%	77.51%	63.24%	–
CCC1CC(N(C)c2ccccc2)c2ccccc2N1C(=O)c1ccc(OC)c(OC)c1 (centres unmarked) [Example 54, 1-(3,4-Dimethoxybenzoyl)-2-ethyl-N-methyl-N-phenyl-1,2,3,4-tetrahydro-4-quinolinamine]	–	–	–	–	–	–	–	146 to 148 °C
